What was measured:
Type in all cases: in vivo
[1] = tested on: Seeds of Lettuce R. (Super-Jericho); test: Filter paper bioassay with lettuce seeds: germination and early plant development, Minimal Effective Concentration (MEC); conditions: lettuce seeds on filter paper, 0 to 1 mmol/l, visually assessed after 6 days
Outline: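 Visual scoring on day 6 of radicle and shoot growth gives the MEC, the lowest dose deviating from control (no germination or malformation). Seeds (lettuce Super-Jericho, 10 per plate) sat on filter paper with 0–1 mmol/l aqueous compound, 48 h dark then 4 days 6/18 dark/light, in at least two repeats.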

[2] = tested on: Romaine lettuce (Lactuca sativa L.) plants; test: Post-emergence herbicidal activity on potted Romaine lettuce plants (soil or foliar application); conditions: lettuce at 2 to 3 leaves, two weeks after treatment
Outline: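 Potted lettuce at the 2-3 leaf stage received compound in 0.1% aqueous Silwet, up to 0.0001%, applied to soil (1 ml/pot) or sprayed on foliage (0.1 ml/pot), 20 plants per concentration. Visual scoring and aboveground wet weight after two weeks; growth inhibition from median weights versus control.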

Amaranth = test: Herbicidal effect on potted weeds, plant development score; conditions: soil application 1 mg/pot, scale 0 (dead plants) to 5 (healthy, as Control)
Protocol: (§1) Weed seeds were sawn in 0.3-liter pots, containing medium-heavy clay-loam soil from organic fields (55% clay, 23% silt, 20% sand, 2% organic matter, pH 7.1). The experiment was conducted in a completely randomized design. Each treatment was replicated 3 times (3 pots). Each compound was typically tested on crops (Corn, Wheat, Soy, Cotton, Oat, Chickpea) and weeds (Amaranth, Chenopodium, Lentils, Sinapis, Silybum).
(§2) The herbicides were applied at dose from 0 (control) to 5 mg/pot. The treatment was performed at the day of sawn (pre-emergence treatment). Then the pots were transferred to a mesh house 24 hours after herbicide application and were sprinkler irrigated to field capacity of the soil. Alternatively, the herbicides were applied on grown plants at stage 2-3 true leaves (post-emergence treatment).
(§3) The plants were grown in the mesh house during the entire experiment. Plant development at 6, 12, 19, 26 and 32 days after application (DAA) were evaluated on a scale of 0 to 5, in which 0 represents dead plants and 5 represents healthy plants similar or not different from Control. In the context of the invention, the herbicidal effect was expressed as a score calculated as an average of assessments of plants vigor, height, and leaf color.

Chenopodium = test: as above; conditions: soil application 1 mg/pot, scale 0 (dead plants) to 5 (healthy, as Control)
Protocol: as §1, §2, §3

Lentils = test: as above; conditions: soil application 1 mg/pot, scale 0 (dead plants) to 5 (healthy, as Control)
Protocol: as §1, §2, §3

Silybum = test: as above; conditions: soil application 1 mg/pot, scale 0 (dead plants) to 5 (healthy, as Control)
Protocol: as §1, §2, §3

Sinapis = test: as above; conditions: soil application 1 mg/pot, scale 0 (dead plants) to 5 (healthy, as Control)
Protocol: as §1, §2, §3

[3] = tested on: Seeds of Lettuce R. (Super-Jericho); test: Filter paper bioassay with lettuce seeds: germination, Fully Effective Concentration (FEC); conditions: lowest concentration mostly preventing lettuce seed germination, assessed after 6 days
Outline: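 Ten lettuce seeds per Petri dish on filter paper with 2.0 ml aqueous test solution, 0 to 1 mmol/l, kept 48 hours dark then 4 days at 6/18 dark/light. Radicle and shoot assessed visually at day 6; FEC is the lowest concentration mostly preventing germination.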

[4] = tested on: Romaine lettuce (Lactuca sativa L.) plants; test: Comparison of NAA and DNAA: growth inhibition of potted Romaine lettuce plants; conditions: two weeks after treatment
Protocol: The tests were performed on Romaine lettuce (Lactuca sativa L.) plants at the stage 2 to 3 leaves. The plants were grown in mini-pots packed with soil, dimensions 2×2×5 cm, one plant per mini-pot. Test compounds were dissolved in 0.1% aqueous solution water solution of Silwet adjuvant. The test material where applied in rate 0 (Control), 0.01, 0.05, and 0.5 mg/pot. The test compounds were applied on soil or foliar with airbrush (0.1 ml per pot). Each concentration was tested on 20 plants. Two weeks after the treatment the herbicidal effects of the respective test material were visually evaluated (aboveground part and roots. Then the aboveground part of the plants was neatly cut and weighed (wet weight) to assess the growth inhibition caused by the test compound. The growth inhibition (GI) was calculated as following: […]
Where Mt and Mc are median wet weight of treated and control plants, respectively.

[5] = foliar application, 0.05 mg/pot
[6] = foliar application, 0.50 mg/pot

Row | Compound | Score (activity score of Minimal Effective Concentration, MEC) [1] | Score (test material causing more than 85% of Growth Inhibition or irreversible plant damage) ([2]; foliar application) | Score (test material causing more than 85% of Growth Inhibition or irreversible plant damage) ([2]; soil application) | Average Herbicidal Effect, Amaranth (Amaranth; post-emergence) | Average Herbicidal Effect, Amaranth (Amaranth; pre-emergence) | Average Herbicidal Effect, Chenopodium (Chenopodium; post-emergence) | Average Herbicidal Effect, Chenopodium (Chenopodium; pre-emergence) | Average Herbicidal Effect, Lentils (Lentils; post-emergence) | Average Herbicidal Effect, Lentils (Lentils; pre-emergence) | Average Herbicidal Effect, Silybum (Silybum; post-emergence) | Average Herbicidal Effect, Silybum (Silybum; pre-emergence) | Average Herbicidal Effect, Sinapis (Sinapis; post-emergence) | Average Herbicidal Effect, Sinapis (Sinapis; pre-emergence) | FEC (Fully Effective Concentration) [3] | Herbicidal effect, growth application (%) [4, 5] | Herbicidal effect, growth application (%) [4, 6] | Herbicidal effect, growth application (%) ([4]; soil application, 0.01 mg/pot) | Herbicidal effect, growth application (%) ([4]; soil application, 0.05 mg/pot) | Herbicidal effect, growth application (%) ([4]; soil application, 0.50 mg/pot)
1 | 2-(2,5-dichloro-1,3-thiazol-4-yl)acetic acid [compound 5637] | Strong (0.01 mM) | moderate (0.5) | strong (0.01 to 0.05) | 3.3 | 1.5 | 2.2 | 1.5 | 1.7 | 0.0 | 1.0 | 0.5 | 0.0 | 3.5 | 0.050 mM |  |  |  |  | 
2 | 2-(6-bromopyridin-2-yl)-2,2-difluoroacetic acid [compound 6617] | Strong (0.01 mM) | moderate (0.5) | strong (0.01 to 0.05) | 2.0 | 4.5 | 0.5 | 4.5 | 1.0 | 2.0 | 4.5 | 5.0 | 2.0 | 3.5 |  | 88% | 100% | 52% | 92% | 91%
3 | ethyl 2-(6-bromopyridin-2-yl)-2,2-difluoroacetate [compound 6640] | Strong (0.01 mM) |  | moderate (0.5) | 4.0 |  | 1.0 |  | 2.0 |  | 3.0 |  | 3.0 |  |  |  |  |  |  | 
4 | O=C(O)Cc1cc(Cl)sc1Cl [compound 586, 2-(2,5-dichlorothiophen-3-yl) acetic acid] | strong | moderate (0.5) | moderate (0.5) | 3.3 | 2.0 |  | 1.5 | 3.2 | 0.5 | 3.7 | 1.0 | 0.0 | 5.0 | 0.050 mM |  |  |  |  | 
5 | 2,2-difluoro-2-[6-(trifluoromethyl)pyridin-2-yl]acetic acid [compound 6651] | Strong (0.01 mM) |  | moderate (0.5) | 0.5 | 5.0 | 0.5 | 1.5 |  | 0.0 | 2.0 | 4.0 | 2.0 |  |  |  |  |  |  | 
6 | O=C(O)C(F)(F)c1nc(Cl)sc1Cl [compound 5667, 2-(2,5-dichloro-1,3-thiazol-4-yl)-2,2-difluoroacetic acid] | very strong | strong (0.01 to 0.05) | strong (0.01 to 0.05) | 3.0 | 2.0 | 2.4 | 0.0 | 0.0 | 0.0 | 0.0 | 3.5 | 0.0 | 2.0 |  | 92% | 100% | 90% | 91% | 100%
7 | O=C([O-])C(F)(F)c1csc(Cl)n1.[Na+] [compound 5666, sodium(2-chloro-1,3-thiazol-4-yl)(difluoro)acetate] | very strong | strong (0.01 to 0.05) | strong (0.01 to 0.05) | 1.2 | 1.0 | 1.5 | 0.0 | 0.0 | 0.0 | 0.0 | 0.5 | 0.0 | 1.0 | 0.010 mM |  |  |  |  | 

Source: US20240284907A1, “NOVEL DERIVATIVES OF NON-CODED AMINO ACIDS AND THEIR USE AS HERBICIDES” (FortePhest LTD., priority 2021, published 2024)
